Molecules are shown by their SMILES. Counter-ions that a name gives are not always drawn. Like-named read-outs stand apart in the source and are kept apart here.

The target in data set [1] is T. cruzi Tulahuen genetically modified to express Beta-galactosidase. The conditions noted are these: cited from earlier work; for EC50: Broad dataset, read-out: EC50 in the Broad dose response dataset.
In data set [2] the test system is transgenic T.cruzi Brazil luc strain. In words: 4-day mouse model of infection, luciferase readout. The format is in vivo, Trypanosoma cruzi. The settings on record: for Chagas mouse model (4 days treatment, luciferase): In vivo efficacy at 50 mg/kg bid (IP): Balb/c mice, 50 mg/kg b.i.d. IP, read at day 7 post-infection, benznidazole = 100%, vehicle = 0%. An excerpt: To assess in vivo efficacy of test compounds, a 4-day mouse model of infection by transgenic T.cruzi Brazil luc strain expressing firefly luciferase was used as previously described. Six-week-old female Balb/c mice (average weight 20g) were obtained from Simonsen Labs (Gilroy, CA). All animal protocols were approved and carried out in accordance with the guidelines established by the Institutional Animal Care and Use Committee from UCSD (Protocol S14187). Mice were housed at a maximum of 5 per cage and kept in a specific-pathogen-free (SPF) room at 20 to 24°C under a 12-h light/12-h dark cycle and provided with sterilized water and chow ad libitum. To infect the mice, trypomastigotes of T. cruzi Brazil luc strain were used. The parasites were harvested from culture supernatant 7 days after the infection of C2C12 myocytes in T.75 culture flasks using DMEM media supplemented with 5% FBS. The harvested parasites were counted and the density was adjusted for 10^6 parasites per milliliter of DMEM media without FBS. For the mouse infection, 100 ul of the parasite solution was injected intraperitoneally (10^5 trypomastigotes) per mouse. Starting on day 3 the infected mice were treated with test compounds at 50 mg/kg administered in 20% Kolliphor, IP, b.i.d., for four consecutive days. Two control groups included untreated mice, which received a vehicle (20% Kolliphor HS 15, a.k.a. Solutol), and the positive control groups, which received 50 mg/kg benznidazole, IP, twice a day (b.i.d). At day 7 post-infection, the luminescent signal from infected mice was read upon injection of D-luciferin. The absolute numbers of measured photons/s/cm^2 were averaged between all five mice in each group. The average photons/s/cm^2 from the group treated with benznidazole was normalized as 100% efficacy and the average photons/s/cm^2 from the group treated with vehicle only was normalized as 0% efficacy. Using a linear correlation, the average photons/s/cm^2 of each compound was normalized in the same efficacy scale as the controls.

The next data set has as its system T. cruzi. Details: method as in PMID 21912715. The settings on record: retest of Broad HTS hits in one study; cited from earlier work.
The next data set concerns T. cruzi CA-I/72. In words: Secondary screening (dose-response assay). The format is cell-based, Trypanosoma cruzi. How it is done: (§1) T. cruzi CA-I/72 trypomastigotes were obtained from C2C12 infected-culture supernatants after 4–7 days of infection. Cultures were maintained at 37°C with 5% CO2. […] Compounds were added at 10 mM in 50 nl per well using a Biomek FX (Beckman Coulter) for a final 10 μM concentration in 50 μl total volume, and 2,500 parasites were added in 10 μl per well. The plate was incubated for 72 hours at 37°C with 5% CO2. After the incubation, the plate was fixed with the addition of 50 μl of 8% paraformaldehyde solution, followed by two successive washing steps using PBS. Finally, a staining solution containing 0.5 μg/ml of 4',6-diamidino-2-phenylindole (DAPI) was added to each well of the plate and incubated for at least 4 hours prior to reading. Images were acquired by an IN Cell Analyzer 2000 (GE Healthcare) and analyzed by IN Cell Analyzer Developer 1.6 software. […] Numbers of host cells and intracellular amastigotes were determined based on host cell and parasite nucleus quantification, providing a measure of growth inhibition during the first 72 h of post-infection treatment compared to untreated controls. […] The host cell viability was assessed based on the total number of cells divided by the average number of cells from untreated controls (0.1% DMSO), being <0.5 considered a cytotoxic compound. This assay was performed in duplicate.
The hit selection criteria: >50% activity at 10 μM and >0.5 host cell viability in the primary screening. To determine the potency of the hit compounds, we performed a dose-response assay. EC50 values of compounds were determined applying the same assay used in the primary screening. […] Then, 50 nl of each sample were diluted in 50 μl media (DMEM H-21) and added to the experimental plate followed by incubation at 37°C with 5% CO2 for 72 h.

The next data set is described as follows: Host cell cytotoxicity. The format is cell-based. The conditions noted are these: mouse; C2C12 host cells. As for the experimental part: as §1
[3] abbreviates: Trypanosoma cruzi, C2C12, 72 h, intracellular T. cruzi in C2C12 cells, 72 h, read-out: EC50.
Setting [4] is: Trypanosoma cruzi, intracellular T. cruzi in C2C12 cells, 72 h, read-out: EC90.
Setting [5] is: intracellular T. cruzi in C2C12 cells, 72 h, read-out: EC50.

For orientation: EC50 means the concentration that produces a half-maximal response. For orientation: IC50 means the midpoint of a concentration-inhibition curve. As a reminder, the EC90 is the concentration at which the effect reaches the 90% level. Regarding `COc1ccc(CCN(C)CCCC(C#N)(c2ccc(OC)c(OC)c2)C(C)C)cc1OC` (racemic) [SC-0005695, (±)-Verapamil hydrochloride], the EC50 in data set [1] is under 100 nM; in the data set with T. cruzi CA-I/72 (intracellular T. cruzi in C2C12 cells, 72 h, listed as (±)-Verapamil hydrochloride), 38.3 nM; in the data set with T. cruzi CA-I/72 (intracellular T. cruzi in C2C12 cells, 72 h, listed as verapamil), under 1000 nM. Besides, the “Chagas mouse model (4 days treatment, luciferase): In vivo efficacy at 50 mg/kg bid (IP)” value (“Chagas mouse model” below) in data set [2] is reported as 55.1%. For the same molecule, the IC50 in the data set on T. cruzi was over 50000 nM. In the data set with T. cruzi CA-I/72 (Trypanosoma cruzi, C2C12, 72 h), this molecule registered an EC90 of 143 nM.
For `O=C(Cn1ccnc1[N+](=O)[O-])NCc1ccccc1` [Benznidazole], the “Chagas mouse model” value in data set [2] worked out at 100%.
Broadly, the CC50 is the concentration that lowers cell viability or growth by half. High values mean lower toxicity to the cells, low ones greater toxicity to the cells. For `COc1ccc2cc1Oc1ccc(cc1)C[C@H]1c3cc(c(OC)cc3CCN1C)Oc1c(OC)c(OC)cc3c1[C@H](C2)N(C)CC3` [SC-0011496, Tetrandrine], the “Result in the larger Broad HTS screening dataset to identify inhibitors of replication” value in data set [1] is “inactive”. The “Chagas mouse model” value in data set [2] is 43.6%. For the same molecule, the “Statistical significance of in vivo efficacy” value in data set [2] (Student t test vs vehicle at day 7, p≤ 0.05) is recorded as “does not appear to have statistically significant efficacy in vivo”. The CC50 at 72 h in “Host cell cytotoxicity” stood at 1300 nM. The EC50 was under 1000 nM in the data set with T. cruzi CA-I/72 (setting [3]) and 508 nM in the data set on T. cruzi CA-I/72 (setting [5]). The EC90 in the data set on T. cruzi CA-I/72 (setting [4]) is 1570 nM.
As for `O=C1OCCN1/N=C/c1ccc([N+](=O)[O-])o1` [SC-0011742, Furazolidone], the “Chagas mouse model” value in data set [2] (listed as Furazolidone, 50 mg/kg) stood at 100.5%; in data set [2] (listed as furazolidone, 50 mg/kg), 100%.
Turning to `NC(=O)N/N=C/c1ccc([N+](=O)[O-])o1` [SC-0011754, Nitrofural], in “Host cell cytotoxicity”, the CC50 at 72 h was over 10000 nM. Moreover, the values for the EC50 in the data set on T. cruzi CA-I/72 (setting [3]) and in the data set with T. cruzi CA-I/72 (setting [5]) were under 1000 nM and 775 nM, respectively. In addition, in the data set on T. cruzi CA-I/72 (setting [4]), the EC90 amounted to 6980 nM.
With `COc1ccc2nc3cc(Cl)ccc3c(Nc3cc(CN4CCCC4)c(O)c(CN4CCCC4)c3)c2n1` [SC-0011799, Pyronaridine], the EC50 was under 587 nM in data set [1]; 225 nM in the data set with T. cruzi CA-I/72 (intracellular T. cruzi in C2C12 cells, 72 h, listed as Pyronaridine, read-out: EC50); under 1000 nM in the data set on T. cruzi CA-I/72 (intracellular T. cruzi in C2C12 cells, 72 h, listed as pyronaridine, read-out: EC50). The “Chagas mouse model” value in data set [2] came to 85.2%. For the same molecule, the CC50 at 72 h in “Host cell cytotoxicity” was found to be 3000 nM. Moreover, the EC90 in the data set on T. cruzi CA-I/72 (setting [4]) was found to be 665 nM.
Take `O=C(NCO)N/N=C/c1ccc([N+](=O)[O-])o1` [hydroxymethylnitrofurazone, Hydroxymethylnitrofurazone]: the “Chagas mouse model” value in data set [2] (50 mg/kg) is recorded as 78.5%.

The record behind these values is publication PMC4482694, “Machine Learning Models and Pathway Genome Data Base for Trypanosoma cruzi Drug Discovery” (PLoS Neglected Tropical Diseases, 2015).
